From publication PMC12028158, “Synthesis and In Vitro Evaluation of the Anticancer Effect of Novel Phosphonium Vindoline Derivatives” (International Journal of Molecular Sciences, 2025)
Like-named read-outs stand apart in the source and are kept apart here.

Key:
Type in all cases: cell-based
CCRF-CEM = assay: NCI60 one-dose screen; conditions: Homo sapiens, read-out: Growth percent
HCC-2998 [1] = assay: NCI60 five-dose screen; conditions: Homo sapiens; HCC-2998, Colon Cancer, five-dose; read-out: GI50
HT29 = assay: NCI60 five-dose screen; conditions: Homo sapiens, HT-29; HT29, Colon Cancer, five-dose; read-out: GI50
MDA-MB-435 = assay: NCI60 one-dose screen; conditions: Homo sapiens
SK-OV-3 [2] = assay: NCI60 one-dose screen; conditions: Homo sapiens
K-562 = assay: NCI60 one-dose screen; conditions: Homo sapiens
SK-MEL-2 = assay: NCI60 one-dose screen; conditions: Homo sapiens
PC-3 [3] = assay: NCI60 one-dose screen; conditions: Homo sapiens
EKVX = assay: NCI60 one-dose screen; conditions: Homo sapiens, read-out: Growth percent
HL-60(TB) = assay: NCI60 one-dose screen; conditions: Homo sapiens
NCI-H23 = assay: NCI60 five-dose screen; conditions: Homo sapiens; NCI-H23, Non-small Cell Lung Cancer, five-dose; read-out: GI50
SF-539 = assay: NCI60 five-dose screen; conditions: Homo sapiens; SF-539, CNS Cancer, five-dose; read-out: GI50
RPMI-8226 = assay: NCI60 five-dose screen; conditions: Homo sapiens; RPMI-8226, Leukemia, five-dose; read-out: GI50
RXF 393 = assay: NCI60 one-dose screen; conditions: Homo sapiens
Melanoma panel = assay: NCI60 five-dose screen, panel mean; conditions: Homo sapiens; mean over Melanoma panel; read-out: Mean GI50
HOP-92 = assay: NCI60 five-dose screen; conditions: Homo sapiens; HOP-92, Non-small Cell Lung Cancer, five-dose; read-out: GI50
Prostate Cancer panel = assay: NCI60 five-dose screen, panel mean; conditions: Homo sapiens; mean over Prostate Cancer panel; read-out: Mean GI50
OVCAR-3 [4] = assay: NCI60 one-dose screen; conditions: Homo sapiens
SF-295 = assay: NCI60 five-dose screen; conditions: Homo sapiens; SF-295, CNS Cancer, five-dose; read-out: GI50
MCF7 = assay: NCI60 one-dose screen; conditions: Homo sapiens
OVCAR-4 = assay: NCI60 one-dose screen; conditions: Homo sapiens
MALME-3M = assay: NCI60 five-dose screen; conditions: Homo sapiens; MALME-3M, Melanoma, five-dose; read-out: GI50
A549/ATCC = assay: NCI60 one-dose screen; conditions: Homo sapiens
OVCAR-3 [5] = assay: NCI60 five-dose screen; conditions: Homo sapiens; OVCAR-3, Ovarian Cancer, five-dose; read-out: GI50
SW-620 = assay: NCI60 one-dose screen; conditions: Homo sapiens
NCI-H522 = assay: NCI60 five-dose screen; conditions: Homo sapiens; NCI-H522, Non-small Cell Lung Cancer, five-dose; read-out: GI50
PC-3 [6] = assay: NCI60 five-dose screen; conditions: Homo sapiens; PC-3, Prostate Cancer, five-dose; read-out: GI50
OVCAR-8 = assay: NCI60 five-dose screen; conditions: Homo sapiens; OVCAR-8, Ovarian Cancer, five-dose; read-out: GI50
HCC-2998 [7] = assay: NCI60 one-dose screen; conditions: Homo sapiens
LOX IMVI = assay: NCI60 one-dose screen; conditions: Homo sapiens, read-out: Growth percent
SR = assay: NCI60 five-dose screen; conditions: Homo sapiens, Leukemia, five-dose, read-out: GI50
SNB-19 = assay: NCI60 one-dose screen; conditions: Homo sapiens
SK-OV-3 [8] = assay: NCI60 five-dose screen; conditions: Homo sapiens; SK-OV-3, Ovarian Cancer, five-dose; read-out: GI50

Work on `CC[C@]12C=CCN3CC[C@@]4(c5ccc(OC)cc5N(C)[C@H]4[C@@](O)(C(=O)OC)[C@@H]1OC(=O)CCC[P+](c1ccc(OC)cc1)(c1ccc(OC)cc1)c1ccc(OC)cc1)[C@@H]32` [9b] yielded an activity at 10 µM (CCRF-CEM; 10 μM, one-dose) of -71.2%, a GI50 (HCC-2998 [1]) of 0.498 µM and a GI50 (HT29) of 0.371 µM. The activity at 10 µM (MDA-MB-435; MDA-MB-435, 10 μM, one-dose, read-out: Growth percent) was -76.9%, the activity at 10 µM (SK-OV-3 [2]; SK-OV-3, 10 μM, one-dose, read-out: Growth percent) was -85.1% and the activity at 10 µM (K-562; K562, K-562, 10 μM, one-dose, read-out: Growth percent) was -1.75%. The activity at 10 µM (SK-MEL-2; SK-MEL-2, 10 μM, one-dose, read-out: Growth percent) was -90.6%, the activity at 10 µM (PC-3 [3]; PC-3, 10 μM, one-dose, read-out: Growth percent) was -78.8% and the activity at 10 µM (EKVX; 10 μM, one-dose) was -85%. For the same molecule, the activity at 10 µM (HL-60(TB); HL-60(TB), 10 μM, one-dose, read-out: Growth percent) was -39.6%, the GI50 (NCI-H23) was 0.671 µM and the GI50 (SF-539) was 1.23 µM. The GI50 (RPMI-8226) was 0.275 µM, the activity at 10 µM (RXF 393; RXF 393, 10 μM, one-dose, read-out: Growth percent) was -92.6% and the GI50 (Melanoma panel) was 0.76 µM. The GI50 (HOP-92) was 0.344 µM, the GI50 (Prostate Cancer panel) was 0.71 µM and the activity at 10 µM (OVCAR-3 [4]; OVCAR-3, 10 μM, one-dose, read-out: Growth percent) was -73.6%. The GI50 (SF-295) was 1.92 µM, the activity at 10 µM (MCF7; MCF7, 10 μM, one-dose, read-out: Growth percent) was -83% and the activity at 10 µM (OVCAR-4; OVCAR-4, 10 μM, one-dose, read-out: Growth percent) was -75.3%. For the same molecule, the GI50 (MALME-3M) was 0.624 µM, the activity at 10 µM (A549/ATCC; A549/ATCC, 10 μM, one-dose, read-out: Growth percent) was -91.4% and the GI50 (OVCAR-3 [5]) was 0.624 µM. The activity at 10 µM (SW-620; SW-620, 10 μM, one-dose, read-out: Growth percent) was -82.4%, the GI50 (NCI-H522) was 0.391 µM and the GI50 (PC-3 [6]) was 0.47 µM. It also gave a GI50 (OVCAR-8) of 1.41 µM, an activity at 10 µM (HCC-2998 [7]; HCC-2998, 10 μM, one-dose, read-out: Growth percent) of -89.7% and an activity at 10 µM (LOX IMVI; 10 μM, one-dose) of -96.4%. It also gave a GI50 (SR) of 0.389 µM, an activity at 10 µM (SNB-19; SNB-19, 10 μM, one-dose, read-out: Growth percent) of -96.7% and a GI50 (SK-OV-3 [8]) of 1.02 µM.
`CCC12C=CCN3CC[C@@]4(c5ccc(OC)cc5N(C)[C@H]4[C@@](O)(C(=O)OC)[C@@H]1OC(C)=O)[C@@H]32` (some centres unmarked) [compound 2, vindoline] was tested, and the activity at 10 µM (CCRF-CEM) was 96.5%, the activity at 10 µM (MDA-MB-435; MDA-MB-435, read-out: Growth percent) was 105% and the activity at 10 µM (SK-OV-3 [2]; SK-OV-3, read-out: Growth percent) was 108%. For the same molecule, the activity at 10 µM (K-562; K562, read-out: Growth percent) was 103%, the activity at 10 µM (SK-MEL-2; SK-MEL-2, read-out: Growth percent) was 107% and the activity at 10 µM (PC-3 [3]; PC-3, read-out: Growth percent) was 88.3%. The activity at 10 µM (EKVX) was 102%, the activity at 10 µM (HL-60(TB); HL-60, read-out: Growth percent) was 104% and the activity at 10 µM (RXF 393; RXF 393, read-out: Growth percent) was 104%. It also gave an activity at 10 µM (OVCAR-3 [4]; OVCAR-3, read-out: Growth percent) of 112%, an activity at 10 µM (MCF7; MCF7, read-out: Growth percent) of 99% and an activity at 10 µM (OVCAR-4; OVCAR-4, read-out: Growth percent) of 98.8%. For the same molecule, the activity at 10 µM (A549/ATCC; A549, read-out: Growth percent) was 93.5%, the activity at 10 µM (SW-620; SW-620, read-out: Growth percent) was 104% and the activity at 10 µM (HCC-2998 [7]; HCC 2998, read-out: Growth percent) was 118%. It also gave an activity at 10 µM (LOX IMVI) of 99.4% and an activity at 10 µM (SNB-19; SNB-19, read-out: Growth percent) of 96.6%.
